Results taken from BindingDB's records for doi:10.1021/jm401056w (Takeda Pharmaceutical, 2013).

Experiment: Inhibition of human KISS1R expressed in CHO cells assessed as inhibition of KISS1R-mediated cell growth after 3 days by cell counting kit-8 assay

Row | IC50 [µM] | Compound
1 | 0.087 | CNC(N)=NCCC[C@H](NC(=O)[C@H](CC(C)C)NC(=O)CNC(=O)[C@H](Cc1ccccc1)NC(=O)[C@H](CO)NC(=O)[C@H](CC(N)=O)NC(=O)[C@H](Cc1c[nH]c2ccccc12)NC(=O)[C@H](CC(N)=O)NC(=O)[C@H](N)Cc1ccc(O)cc1)C(=O)N[C@@H](Cc1ccccc1)C(N)=O
2 | 8.51 | CC(C)C[C@H](NC(=O)CNC(=O)[C@H](Cc1ccccc1)NC(=O)[C@H](CO)NC(=O)[C@H](CC(N)=O)NC(=O)[C@H](Cc1c[nH]c2ccccc12)NC(=O)[C@H](CC(N)=O)NC(=O)[C@@H](N)Cc1ccc(O)cc1)C(=O)N[C@@H](CCCN=C(N)N)C(=O)N[C@@H](Cc1ccccc1)C(N)=O [(2S)-2-[(2S)-2-[(2S)-2-[(2S)-2-amino-3-(4-hydroxyphenyl)propanamido]butanediamido]-3-(1H-indol-3-yl)propanamido]-N-[(1S)-1-{[(1S)-1-[({[(1S)-1-{[(1S)-4-carbamimidamido-1-{[(1S)-1-carbamoyl-2-phenylethyl]carbamoyl}butyl]carbamoyl}-3-methylbutyl]carbamoyl}methyl)carbamoyl]-2-phenylethyl]carbamoyl}-2-hydroxyethyl]butanediamide]
